Source: US9497970B2, “Pesticide compounds” (priority 2013, dated 2016)

Tests used:
Format in all cases: in vivo
[1] = system: Tobacco Budworm (Heliothis virescens); assay: B.7 Tobacco Budworm (Heliothis virescens) I, microtiter plate insect diet; conditions: 120 h, 800 ppm, sprayed onto insect diet, 5 days, in comparison with untreated controls, read-out: mortality (egg and larval)
Experimental: B.7 Tobacco Budworm (Heliothis virescens) I
For evaluating control of tobacco budworm (Heliothis virescens) the test unit consisted of 96-well-microtiter plates containing an insect diet and 15-25 H. virescens eggs. The compounds were formulated using a solution containing 75% v/v water and 25% v/v DMSO. Different concentrations of formulated compounds were sprayed onto the insect diet at 10 μl, using a custom built micro atomizer, at two replications.
(§1) After application, microtiter plates were incubated at about 28±1° C. and about 80±5% relative humidity for 5 days. Egg and larval mortality was then visually assessed.

[2] = system: Southern Armyworm (Spodoptera eridania), 2nd Instar Larvae; assay: B.10 Southern Armyworm (Spodoptera eridania), 2nd Instar Larvae, sprayed lima bean plants; conditions: 96 h, 300 ppm, larvae on sprayed lima bean plants, 4 days after treatment, in comparison with untreated controls, read-out: mortality
Experimental: B.10 Southern Armyworm (Spodoptera eridania), 2nd Instar Larvae
The active compounds were formulated by a Tecan liquid handler in 100% cyclohexanone as a 10,000 ppm solution supplied in tubes. The 10,000 ppm solution was serially diluted in 100% cyclohexanone to make interim solutions. These served as stock solutions for which final dilutions were made by the Tecan in 50% acetone:50% water (v/v) into 5 or 10 ml glass vials. A nonionic surfactant (Kinetic®) was included in the solution at a volume of 0.01% (v/v). The vials were then inserted into an automated electrostatic sprayer equipped with an atomizing nozzle for application to plants/insects.
Lima bean plants (variety Sieva) were grown 2 plants to a pot and selected for treatment at the 1st true leaf stage. Test solutions were sprayed onto the foliage by an automated electrostatic plant sprayer equipped with an atomizing spray nozzle. The plants were dried in the sprayer fume hood and then removed from the sprayer. Each pot was placed into perforated plastic bags with a zip closure. About 10 to 11 armyworm larvae were placed into the bag and the bags zipped closed. Test plants were maintained in a growth room at about 25° C. and about 20-40% relative humidity for 4 days, avoiding direct exposure to fluorescent light (24 hour photoperiod) to prevent trapping of heat inside the bags. Mortality and reduced feeding were assessed 4 days after treatment, compared to untreated control plants.

[3] = system: Boll Weevil (Anthonomus grandis); assay: B.3 Boll Weevil (Anthonomus grandis), microtiter plate insect diet; conditions: 120 h, 800 ppm, sprayed onto insect diet, 5 days, in comparison with untreated controls, read-out: mortality (egg and larval)
Experimental: B.3 Boll Weevil (Anthonomus grandis)
For evaluating control of boll weevil (Anthonomus grandis) the test unit consisted of 96-well-microtiter plates containing an insect diet and 5-10 A. grandis eggs.
(§2) The compounds were formulated using a solution containing 75% v/v water and 25% v/v DMSO. Different concentrations of formulated compounds were sprayed onto the insect diet at 5 μl, using a custom built micro atomizer, at two replications.
After application, microtiter plates were incubated at about 25±1° C. and about 75±5% relative humidity for 5 days. Egg and larval mortality was then visually assessed.

[4] = system: Diamond Back Moth (Plutella xylostella); assay: B.1 Diamond Back Moth (Plutella xylostella), cabbage leaf dip; conditions: foliar, 500 ppm, 3rd instar larvae on dipped cabbage leaves, 72 hours after treatment, in comparison with untreated controls, read-out: mortality
Experimental: B.1 Diamond Back Moth (Plutella xylostella)
The active compound was dissolved at the desired concentration in a mixture of 1:1 (vol:vol) distilled water:aceteone. Surfactant (Kinetic HV) was added at a rate of 0.01% (vol/vol). The test solution was prepared at the day of use.
Leaves of cabbage were dipped in test solution and air-dried. Treated leaves were placed in petri dishes lined with moist filter paper and inoculated with ten 3rd instar larvae. Mortality was recorded 72 hours after treatment. Feeding damages were also recorded using a scale of 0-100%.

[5] = system: Mediterranean Fruitfly (Ceratitis capitata); assay: B.6 Mediterranean Fruitfly (Ceratitis capitata), microtiter plate insect diet; conditions: 120 h, 800 ppm, sprayed onto insect diet, 5 days, in comparison with untreated controls, read-out: mortality (egg and larval)
Experimental: B.6 Mediterranean Fruitfly (Ceratitis capitata)
For evaluating control of Mediterranean fruitfly (Ceratitis capitata) the test unit consisted of microtiter plates containing an insect diet and 50-80 C. capitata eggs.
as §2, §1

[6] = system: Yellow Fever Mosquito (Aedes aegypti); assay: whole plant or invertebrate; conditions: 48 h, freshly hatched larvae in tap water, 2 days, in comparison with untreated controls, read-out: mortality (larval)
Experimental: B.11 Yellow Fever Mosquito (Aedes aegypti)
For evaluating control of yellow fever mosquito (Aedes aegypti) the test unit consisted of 96-well-microtiter plates containing 200 μl of tap water per well and 5-15 freshly hatched A. aegypti larvae.
The active compounds were formulated using a solution containing 75% (v/v) water and 25% (v/v) DMSO. Different concentrations of formulated compounds or mixtures were sprayed onto the insect diet at 2.5 μl, using a custom built micro atomizer, at two replications.

[7] = system: Orchid thrips (dichromothrips corbetti); assay: B.12 Orchid thrips (dichromothrips corbetti), floral-immersion technique; conditions: adult thrips on dipped orchid petals, 72 hours after treatment, in comparison with untreated controls
Experimental: B.12 Orchid thrips (dichromothrips corbetti)
Dichromothrips corbetti adults used for bioassay were obtained from a colony maintained continuously under laboratory conditions. For testing purposes, the test compound is diluted in a 1:1 mixture of acetone:water (vol:vol), plus Kinetic HV at a rate of 0.01% v/v.
Thrips potency of each compound was evaluated by using a floral-immersion technique. All petals of individual, intact orchid flowers were dipped into treatment solution and allowed to dry in Petri dishes. Treated petals were placed into individual resealable plastic along with about 20 adult thrips. All test arenas were held under continuous light and a temperature of about 28° C. for duration of the assay. After 3 days, the numbers of live thrips were counted on each petal. The percent mortality was recorded 72 hours after treatment.

Cc1cccc([S+](C)[O-])c1NC(=S)N/N=C/c1ccc2c(ccc3c2ncn3-c2ccc(OC(F)(F)F)cc2)c1 (stereo not shown) [C-104, 1-(2-methyl-6-methylsulfinyl-phenyl)-3-[(E)-[3-[4-(trifluoromethoxy)phenyl]benzo[e]benzimidazol-7-yl]methyleneamino]thiourea]
≥ 75%: mortality at 800 ppm [1] | mortality at 300 ppm [2] | mortality at 800 ppm [3] | mortality at 500 ppm [4] | mortality at 800 ppm [5] | mortality at 800 ppm [6] | mortality at 500 ppm [7]

Cc1cccc(C)c1NC(=S)N/N=C/c1ccc2c(c1)CCc1c-2nn(C)c1-c1ccc(OC(F)(F)F)cc1 [C-107, 1-(2,6-dimethylphenyl)-3-[(E)-[2-methyl-3-[4-(trifluoromethoxy)phenyl]-4,5-dihydrobenzo[g]indazol-7-yl]methyleneamino]thiourea]
≥ 75%: mortality at 800 ppm [1] | mortality at 300 ppm [2] | mortality at 800 ppm [3] | mortality at 500 ppm [4] | mortality at 800 ppm [5] | mortality at 800 ppm [6] | mortality at 500 ppm [7]

COc1cccc(C)c1NC(=S)N/N=C/c1ccc2c(ccc3c(-c4ccc(OC(F)(F)F)cc4)n(C)nc32)c1 [C-97, 1-(2-methoxy-6-methyl-phenyl)-3-[(E)-[2-methyl-3-[4-(trifluoromethoxy)phenyl]benzo[g]indazol-7-yl]methyleneamino]thiourea]
≥ 75%: mortality at 800 ppm [1] | mortality at 800 ppm [3] | mortality at 500 ppm [4] | mortality at 800 ppm [5] | mortality at 800 ppm [6]

Cc1ccccc1NC(=S)N/N=C/c1ccc2c(ccc3c2ncn3-c2ccc(OC(F)(F)F)cc2)c1 [C-23, 3-(o-tolyl)-1-[[3-[4-(trifluoromethoxy)phenyl]-9aH-benzo[e]benzimidazol-7-ylidene]methylimino]isothiourea]
≥ 75%: mortality at 800 ppm [1] | mortality at 300 ppm [2] | mortality at 800 ppm [3] | mortality at 500 ppm [4] | mortality at 800 ppm [5] | mortality at 500 ppm [7]

Fc1cccc(F)c1NC(=S)N/N=C/c1ccc2c(ccc3c2ncn3-c2ccc(OC(F)(F)F)cc2)c1 [C-71, 1-(2,6-difluorophenyl)-3-[(E)-[3-[4-(trifluoromethoxy)phenyl]benzo[e]benzimidazol-7-yl]methyleneamino] thiourea]
≥ 75%: mortality at 800 ppm [1] | mortality at 300 ppm [2] | mortality at 800 ppm [3] | mortality at 800 ppm [5]

COc1cccc(C)c1NC(=S)N/N=C/c1ccc2c(ccc3c2ncn3-c2ccc(OC(F)(F)F)cc2)c1 [C-65, 1-(2-methoxy-6-methyl-phenyl)-3-[(E)-[3-[4-(trifluoromethoxy)phenyl]benzo[e]benzimidazol-7-yl]methyleneamino] thiourea]
≥ 75%: mortality at 800 ppm [1] | mortality at 800 ppm [3] | mortality at 500 ppm [4] | mortality at 800 ppm [5] | mortality at 800 ppm [6] | mortality at 500 ppm [7]

Cc1cccc(C)c1NC(=S)N/N=C/c1ccc2c(c1)CCC1C2=NN(C)C1c1ccc(OC(F)(F)F)cc1 (stereo not shown) [C-94, 1-(2,6-dimethylphenyl)-3-[(E)-[2-methyl-3-[4-(trifluoromethoxy)phenyl]-3,3a,4,5-tetrahydrobenzo[g]indazol-7-yl]methyleneamino]thiourea]
≥ 75%: mortality at 800 ppm [1] | mortality at 800 ppm [3] | mortality at 500 ppm [4] | mortality at 800 ppm [6] | mortality at 500 ppm [7]

CCc1cccc(CC)c1NC(=S)N/N=C/c1ccc2c(ccc3c(-c4ccc(OC(F)(F)F)cc4)n(C)nc32)c1 [C-93, 1-(2,6-diethylphenyl)-3-[(E)-[2-methyl-3-[4-(trifluoromethoxy)phenyl]benzo [g]indazol-7-yl]methyleneamino] thiourea]
≥ 75%: mortality at 800 ppm [1] | mortality at 800 ppm [3] | mortality at 500 ppm [4] | mortality at 800 ppm [6] | mortality at 500 ppm [7]

FC(F)(F)Oc1ccc(-n2cnc3c4ccc(/C=N/NC(=S)Nc5c(Cl)cccc5Cl)cc4ccc32)cc1 [C-37, 1-(2,6-dichlorophenyl)-3-[(E)-[3-[4-(trifluoromethoxy)phenyl]benzo[e]benzimidazol-7-yl]methyleneamino] thiourea]
≥ 75%: mortality at 800 ppm [1] | mortality at 800 ppm [3] | mortality at 500 ppm [4] | mortality at 800 ppm [5] | mortality at 800 ppm [6] | mortality at 500 ppm [7]

Cc1cccc(C)c1NC(=S)N/N=C/c1ccc2c(ccc3c2ncn3-c2ccc(Cl)cc2)c1 [C-106, 1-[(E)-[3-(4-chlorophenyl)benzo[e]benzimidazol-7-yl]methyleneamino]-3-(2,6-dimethylphenyl)thiourea]
≥ 75%: mortality at 800 ppm [1] | mortality at 300 ppm [2] | mortality at 800 ppm [3] | mortality at 800 ppm [5] | mortality at 800 ppm [6]

Cc1cccc(C)c1NC(=S)N/N=C/c1ccc2c(ccc3c(-c4ccc(OC(F)(F)F)cc4)n(C)nc32)c1 [C-96, 1-(2,6-dimethylphenyl)-3-[(E)-[2-methyl-3-[4-(trifluoromethoxy)phenyl]benzo[g]indazol-7-yl]methyleneamino] thiourea]
≥ 75%: mortality at 800 ppm [1] | mortality at 800 ppm [3] | mortality at 500 ppm [4] | mortality at 800 ppm [5] | mortality at 800 ppm [6] | mortality at 500 ppm [7]

Cc1ccc(C)c(NC(=S)N/N=C/c2ccc3c(ccc4c3ncn4-c3ccc(OC(F)(F)F)cc3)c2)c1 [C-41, 1-(2,5-dimethylphenyl)-3-[(E)-[3-[4-(trifluoromethoxy)phenyl]benzo[e]benzimidazol-7-yl]methyleneamino] thiourea]
≥ 75%: mortality at 800 ppm [1] | mortality at 800 ppm [3] | mortality at 500 ppm [4] | mortality at 800 ppm [5] | mortality at 800 ppm [6] | mortality at 500 ppm [7]

CCc1ccccc1NC(=S)N/N=C/c1ccc2c(ccc3c2ncn3-c2ccc(OC(F)(F)F)cc2)c1 [C-22, 3-(2-ethylphenyl)-1-[[3-[4-(trifluoromethoxy)phenyl]-9aH-benzo[e]benzimidazol-7-ylidene]methylimino] isothiourea]
≥ 75%: mortality at 800 ppm [1] | mortality at 300 ppm [2] | mortality at 800 ppm [3] | mortality at 500 ppm [4] | mortality at 800 ppm [5] | mortality at 800 ppm [6] | mortality at 500 ppm [7]

CCc1cccnc1NC(=S)N/N=C/c1ccc2c(ccc3c2ncn3-c2ccc(OC(F)(F)F)cc2)c1 [C-68, 1-(3-ethyl-2-pyridyl)-3-[(E)-[3-[4-(trifluoromethoxy)phenyl]benzo[e]benzimidazol-7-yl]methyleneamino] thiourea]
≥ 75%: mortality at 300 ppm [2] | mortality at 800 ppm [3] | mortality at 500 ppm [4] | mortality at 800 ppm [5]
